Reference: US5652249A, “Method of treating depression” (Nippon Shinyaku Co., Inc., priority 1993, dated 1997)

Columns and labels:
rats [1] = experiment: Rat forced swimming test (immobility time); format: in vivo, rat (male Wistar); settings: for Immobility Time (mean ± S.E.): N=10; for Effect on the immobility time in the forced swimming test (in words): Dunnett's test vs control
Description: (§1) Particularly the forced swimming test has been used most widely in the evaluation of antidepressant drugs in animals. Reportedly the immobility time-shortening activity of an antidepressant drug as assayed by this test is highly correlated with the clinical efficacy of the drug in man (F. Borsini and A. Meli, 1988).
Five-week old male Wistar rats were used. A cylindrical vessel measuring 18 cm in diameter and 40 cm deep was filled with 25° C. of water to the level of 17 cm from the bottom, and the rat was forced to swim in the water for 15 minutes (Session I). After 24 hours, the rat was put again in the vessel for 5 minutes and the duration of time the rat remained motionless without swimming was determined (Session II). The drug was orally administered twice, viz. at completion of Session I and 1 hr before the start of Session II. The drug was suspended in 0.5% methylcellulose (MC) solution for the administration. The control group was orally given the same volume of 0.5% MC solution. Compound No. 2 was used as the test drug. As reference drugs, desipramine, which is a representative antidepressant, and aniracetam and idebenone, both of which are enhancers of cerebral circulation and metabolism, were used. The statistical significance of between groups differences was analyzed by Dunnett's test.

rats [2] = experiment: Rat learned helplessness test (escape failures); format: in vivo; settings: for No. of escape failures (mean ± S.E.): oral once daily for 10 days, ECS group, 40 avoidance tasks, N=10
Text: as §1
The rat was orally administered with the drug once daily for 10 consecutive days. On days 8-10 of administration, the rat was placed in a shuttle box in which it received 100 unescapable electroconvulsive shocks (ECS) daily. The day after the last ECS session, the active avoidance task was given 40 times and the number of failures to escape was recorded. Compound No. 2 was used as the test drug. As a reference drug, desipramine was used.

[3] = Acute toxicity testing, oral, mice; set-up: species or system mouse (male ddy-strain); settings: mouse, in vivo, male ddy mice, 2 weeks observation, probit method
Description: (1) Groups of five male ddy-strain mice aged 6-7 weeks were used. The animals were fasted for 16-18 hours (from the previous day) and then orally given the test compound. The LD50 values were calculated by the probit method based on the mortality observed within the succeeding period of 2 weeks.

[4] = Acute toxicity testing, oral, rats; set-up: species or system rat (male SD-strain); settings: rat, in vivo, male SD rats, two-week observation, probit method
Description: (2) Groups of five male SD-strain rats weighing 280-360 g were used. The animals were fasted for 16-18 hours (from the previous day) and then orally given the test compound. The LD50 values were calculated by the probit method based on the mortality observed within the succeeding two-week period.

[5] = 30 mg/kg, oral twice, *p < 0.01 vs control
[6] = 100 mg/kg, oral twice, *p < 0.01 vs control
[7] = 1 mg/kg, oral twice, *p < 0.01 vs control
[8] = 3 mg/kg, oral twice, *p < 0.01 vs control
[9] = 10 mg/kg, oral twice, *p < 0.01 vs control

SMILES | Immobility Time (mean ± S.E.) (rats [1]; [5]) [s] | Immobility Time (mean ± S.E.) (rats [1]; [6]) [s] | Immobility Time (mean ± S.E.) (rats [1]; 300 mg/kg, oral twice) [s] | Effect on the immobility time in the forced swimming test (in words) (rats [1]; oral twice) | Immobility Time (mean ± S.E.) (rats [1]; [7]) [s] | Immobility Time (mean ± S.E.) (rats [1]; [8]) [s] | Immobility Time (mean ± S.E.) (rats [1]; [9]) [s] | Immobility Time (mean ± S.E.) (rats [1]; 50 mg/kg, oral twice, *p < 0.01 vs control) [s] | No. of escape failures (mean ± S.E.) (rats [2]; 1 mg/kg) | No. of escape failures (mean ± S.E.) (rats [2]; 3 mg/kg) | Effect on failure to escape in the learned helplessness test (in words) (rats [2]; 10 mg/kg, oral) | No. of escape failures (mean ± S.E.) (rats [2]; 10 mg/kg, *p < 0.01) | Immobility Time (mean ± S.E.) (rats [1]; 0.3 mg/kg, oral twice (after Session I and 1 hr before Session II)) [s] | LD50 at 336 h [3] [mg/kg] | LD50 at 336 h [4] [mg/kg]
COC1=C(OC)C(=O)C(CCCCCCCCCCO)=C(C)C1=O [idebenone] | 178.2 ± 17.6 | 154.4 ± 17.4 | 180.9 ± 13.9 | did not influence the immobility time |  |  |  |  |  |  |  |  |  |  | 
CNCCCN1c2ccccc2CCc2ccccc21 [desipramine] | 34.8 ± 12.2 |  |  | shortened the immobility time significantly and dose dependently at 3 mg/kg and higher doses | 134.2 ± 20.8 | 83.2 ± 16.1 | 54.7 ± 15.8 | 41.8 ± 9.8 | 32.10 ± 2.66 | 19.00 ± 5.65 | significant inhibitory effects on this failure to escape at 10 mg/kg | 0.60 ± 0.27 |  |  | 
COc1ccc(C(=O)N2CCCC2=O)cc1 [aniracetam] | 162.6 ± 14.5 | 175.6 ± 13.8 |  | did not influence the immobility time |  |  | 168.9 ± 18.0 |  |  |  |  |  |  |  | 
O=C1CC[C@H](C(=O)N2CCCCC2)N1 [Compound No. 2, D-(+)-1-(2-Pyrrolidone-5-carbonyl)piperidine] | 61.3 ± 8.5 | 53.8 ± 12.6 |  |  | 119.4 ± 11.0 | 82.2 ± 18.1 | 93.7 ± 13.4 |  | 20.20 ± 4.89 | 13.60 ± 4.15 |  | 0.90 ± 0.69 | 153.0 ± 17.2 | 4160 | ≥ 5000
